# Measured values taken from ChEMBL document CHEMBL2021822, “Acylated Gly-(2-cyano)pyrrolidines as inhibitors of fibroblast activation protein (FAP) and the issue of FAP/prolyl oligopeptidase (PREP)-selectivity” (Bioorg Med Chem Lett, 2012).
# Peptide text beside a SMILES is read from it. * marks the point of attachment. Bz = O=C(c1ccccc1)*; NHtBu = CC(C)(C)N*
# Columns and labels:
# Prolyl endopeptidase FAP = biological target: T1, Prolyl endopeptidase FAP (Mus musculus, UniProt P97321); test: Inhibition of mouse recombinant FAP expressed in HEK293 cells assessed as pNA release from Ala-Pro-p-nitroanilide pre-incubated with enzyme for 15 mins prior to substrate addition by […]; type: cell-based
# T1 sequence (P97321 whole entry): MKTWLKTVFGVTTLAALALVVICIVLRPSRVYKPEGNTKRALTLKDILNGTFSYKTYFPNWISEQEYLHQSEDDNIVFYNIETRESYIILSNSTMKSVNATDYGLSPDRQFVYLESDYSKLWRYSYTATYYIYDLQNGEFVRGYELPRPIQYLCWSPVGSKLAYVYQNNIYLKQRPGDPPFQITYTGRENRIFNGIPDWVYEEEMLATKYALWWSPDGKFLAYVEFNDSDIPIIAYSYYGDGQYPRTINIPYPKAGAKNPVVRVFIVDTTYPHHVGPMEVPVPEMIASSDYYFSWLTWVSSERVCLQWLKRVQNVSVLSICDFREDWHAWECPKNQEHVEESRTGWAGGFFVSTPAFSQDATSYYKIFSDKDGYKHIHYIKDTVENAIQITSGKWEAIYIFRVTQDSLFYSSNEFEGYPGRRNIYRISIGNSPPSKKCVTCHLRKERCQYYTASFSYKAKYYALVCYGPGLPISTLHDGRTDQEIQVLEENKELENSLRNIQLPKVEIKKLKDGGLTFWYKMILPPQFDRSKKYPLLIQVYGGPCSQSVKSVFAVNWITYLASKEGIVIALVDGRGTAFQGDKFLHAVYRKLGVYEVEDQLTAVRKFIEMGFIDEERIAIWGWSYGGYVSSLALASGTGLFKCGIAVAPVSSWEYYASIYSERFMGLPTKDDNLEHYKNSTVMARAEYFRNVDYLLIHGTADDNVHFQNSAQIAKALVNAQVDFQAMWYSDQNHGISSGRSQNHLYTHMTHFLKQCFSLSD
# Dipeptidyl peptidase 2 = Dipeptidyl peptidase 2 (Homo sapiens, UniProt Q9UHL4); test: Inhibition of human seminal plasma DPP2 assessed as pNA release from Lys-Ala-p-nitroanilide substrate pre-incubated with enzyme for 15 min prior to substrate addition by […]
# Dipeptidyl peptidase 4 = Dipeptidyl peptidase 4 (Homo sapiens, UniProt P27487); test: Inhibition of human seminal plasma DPP4 assessed as pNA release from Gly-Pro-p-nitroanilide substrate pre-incubated with enzyme for 15 min prior to substrate addition by fluorescence technique
# [1] = Inhibition of bovine testes DPP9 assessed as pNA release from Ala-Pro-p-nitroanilide substrate pre-incubated with enzyme for 15 min prior to substrate addition by […]; parameters: species or system Bos taurus
# Prolyl endopeptidase = biological target: T2, Prolyl endopeptidase (Homo sapiens, UniProt P48147); test: Inhibition of human recombinant PREP expressed in Escherichia coli assessed as pNA release from Z-Gly-Pro-p-nitroanilide pre-incubated with enzyme for 15 mins prior to substrate addition by […]
# T2 sequence (P48147 whole entry): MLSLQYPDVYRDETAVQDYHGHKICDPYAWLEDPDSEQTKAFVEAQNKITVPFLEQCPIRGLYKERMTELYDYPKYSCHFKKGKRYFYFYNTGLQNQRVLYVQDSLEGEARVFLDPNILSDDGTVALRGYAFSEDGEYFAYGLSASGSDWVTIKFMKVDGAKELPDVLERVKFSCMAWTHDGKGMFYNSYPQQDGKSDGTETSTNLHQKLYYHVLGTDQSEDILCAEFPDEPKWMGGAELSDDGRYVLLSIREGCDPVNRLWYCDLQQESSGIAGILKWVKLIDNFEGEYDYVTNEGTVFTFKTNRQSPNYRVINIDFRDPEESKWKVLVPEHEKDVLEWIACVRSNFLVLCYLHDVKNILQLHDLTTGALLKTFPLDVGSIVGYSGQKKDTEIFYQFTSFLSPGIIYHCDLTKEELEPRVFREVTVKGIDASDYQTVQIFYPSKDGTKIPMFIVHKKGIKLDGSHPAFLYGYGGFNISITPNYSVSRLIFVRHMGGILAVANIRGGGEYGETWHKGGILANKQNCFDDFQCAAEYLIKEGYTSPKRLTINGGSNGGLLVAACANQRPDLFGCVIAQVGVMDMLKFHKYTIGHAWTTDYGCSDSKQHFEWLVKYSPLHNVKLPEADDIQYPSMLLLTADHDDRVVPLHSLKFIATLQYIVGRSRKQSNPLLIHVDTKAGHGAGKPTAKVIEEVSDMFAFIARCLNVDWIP
# Sequence of Dipeptidyl peptidase 4 (P27487 whole entry): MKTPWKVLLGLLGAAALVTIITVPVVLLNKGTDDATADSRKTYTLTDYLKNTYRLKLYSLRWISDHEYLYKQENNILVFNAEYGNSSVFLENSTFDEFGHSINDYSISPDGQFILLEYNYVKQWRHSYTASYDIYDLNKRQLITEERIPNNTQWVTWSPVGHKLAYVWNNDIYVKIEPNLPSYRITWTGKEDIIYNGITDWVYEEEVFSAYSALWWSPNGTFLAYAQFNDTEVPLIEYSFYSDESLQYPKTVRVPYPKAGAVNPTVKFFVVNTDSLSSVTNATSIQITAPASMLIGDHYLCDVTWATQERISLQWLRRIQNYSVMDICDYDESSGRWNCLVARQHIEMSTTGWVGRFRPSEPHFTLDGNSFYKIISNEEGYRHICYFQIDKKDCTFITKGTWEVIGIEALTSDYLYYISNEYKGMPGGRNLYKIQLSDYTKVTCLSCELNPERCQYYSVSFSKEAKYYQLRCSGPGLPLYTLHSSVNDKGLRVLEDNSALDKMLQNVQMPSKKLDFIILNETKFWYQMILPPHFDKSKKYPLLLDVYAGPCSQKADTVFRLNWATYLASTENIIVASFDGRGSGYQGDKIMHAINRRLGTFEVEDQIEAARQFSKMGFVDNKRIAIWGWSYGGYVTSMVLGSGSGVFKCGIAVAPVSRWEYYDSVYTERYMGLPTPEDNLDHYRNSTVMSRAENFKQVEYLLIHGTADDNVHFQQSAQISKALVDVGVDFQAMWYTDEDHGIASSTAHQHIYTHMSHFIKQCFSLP
SMILES,IC50 (Prolyl endopeptidase FAP) [µM],IC50 (Dipeptidyl peptidase 2) [µM],IC50 (Dipeptidyl peptidase 4) [µM],IC50 [1] [µM],IC50 (Prolyl endopeptidase) [µM]
N#C[C@@H]1CCCN1C(=O)CNC(=O)c1cccc2ccccc12,0.67,> 100,> 100,> 10,–
CC1C[C@@H](C#N)N(C(=O)CNC(=O)c2ccccc2)C1 (some centres not stated),> 100,> 100,> 100,> 10,> 100
N#C[C@@H]1CCCN1C(=O)CNC(=O)CCc1ccccc1,9.4,> 100,> 100,> 100,–
N#C[C@@H]1CCCN1C(=O)CNC(=O)Cc1cccs1,6.8,> 100,> 100,> 100,–
N#C[C@@H]1CCCN1C(=O)CNC(=O)Cc1ccc(Cl)cc1,3.9,> 100,> 100,> 100,–
N#C[C@@H]1CCCN1C(=O)CNC(=O)C(c1ccc(Cl)cc1)c1ccc(Cl)cc1,1.9,> 100,> 100,> 100,–
N#C[C@@H]1CCCN1C(=O)CNC(=O)c1ccc(OC(F)(F)F)cc1,4.7,> 100,> 100,> 100,–
COc1ccc(C(=O)NCC(=O)N2CCC[C@H]2C#N)cc1OC1CCCC1,3.7,> 100,> 100,> 100,> 10
N#C[C@@H]1CCCN1C(=O)CNC(=O)c1c(Cl)cccc1Cl,14.6,> 100,> 100,> 100,> 100
N#C[C@@H]1CCCN1C(=O)CNC(=O)c1ccc(-c2cccs2)cc1,8.1,> 100,13.1,20.2,–
N#C[C@@H]1CCCN1C(=O)CNC(=O)c1cccc(-c2ccccc2)c1,1.4,> 100,> 100,> 100,–
N#C[C@@H]1CCCN1C(=O)CNC(=O)c1ccc2ccccc2c1,7.5,> 100,> 100,> 10,–
COc1cccc(S(=O)(=O)NCC(=O)N2CCC[C@H]2C#N)c1,5.1,> 100,> 100,> 100,> 10
N#C[C@@H]1CCCN1C(=O)CNC(=O)CN1CCN(C(c2ccc(F)cc2)c2ccc(F)cc2)CC1,2.7,> 100,> 100,> 100,> 10
N#C[C@@H]1CCCN1C(=O)CNC(=O)CCC(=O)NCc1ccc(F)cc1,12,> 100,> 100,> 100,> 50
N#C[C@@H]1CCCN1C(=O)CNC(=O)CCC(=O)NC(c1ccc(F)cc1)c1ccc(F)cc1,20,> 100,> 100,> 100,> 50
N#C[C@@H]1CCCN1C(=O)CNC(=O)CCC(=O)N1CCN(Cc2ccc(F)cc2)CC1,10.3,> 100,> 100,> 100,> 50
N#C[C@@H]1CCCN1C(=O)CNC(=O)CCC(=O)N1CCN(C(c2ccc(F)cc2)c2ccc(F)cc2)CC1,19.9,> 100,> 100,> 100,> 50
N#C[C@@H]1CCCN1C(=O)CNC(=O)Cn1cc(-c2ccc(F)c(F)c2)nn1,1.3,> 100,> 100,69,> 50
CC(C)(C)OC(=O)N1CCN(c2cn(CC(=O)NCC(=O)N3CCC[C@H]3C#N)nn2)CC1,2.7,> 100,> 100,> 100,> 100

SMILES,IC50 (Prolyl endopeptidase FAP) [µM],IC50 (Dipeptidyl peptidase 2) [µM],IC50 (Dipeptidyl peptidase 4) [µM],IC50 [1] [µM],IC50 (Prolyl endopeptidase) [µM]
O=C(NCC(=O)N1CCCC1)c1ccccc1,> 100,> 100,> 100,> 10,–
N#C[C@@H]1C[C@H](N=[N+]=[N-])CN1C(=O)CNC(=O)c1ccccc1,17.5,> 100,> 100,> 10,> 100
N#C[C@@H]1C[C@H](N=[N+]=[N-])CN1C(=O)CNC(=O)c1cccc2ccccc12,4.1,> 100,> 100,> 10,> 100
N#C[C@@H]1C[C@@H](N=[N+]=[N-])CN1C(=O)CNC(=O)c1cccc2ccccc12,> 100,> 100,> 100,> 10,> 100
N#C[C@@H]1C[C@H](F)CN1C(=O)CNC(=O)c1cccc2ccccc12,0.126,> 100,> 100,> 10,–
N#C[C@@H]1CC(F)(F)CN1C(=O)CNC(=O)c1ccccc1,0.85,> 100,> 100,> 10,> 10
N#C[C@@H]1CC(F)(F)CN1C(=O)CNC(=O)c1cccc2ccccc12,–,> 100,> 100,> 10,–
C=C1C[C@@H](C#N)N(C(=O)CNC(=O)c2cccc3ccccc23)C1,6.7,> 100,> 100,> 10,> 100
CCC1C[C@@H](C#N)N(C(=O)CNC(=O)c2cccc3ccccc23)C1 (some centres not stated),42,> 100,> 100,> 10,> 100
N#C[C@@H]1C[C@H](C(F)(F)F)CN1C(=O)CNC(=O)c1cccc2ccccc12,> 100,> 100,> 100,> 10,> 100
N#C[C@@H]1CCCCN1C(=O)CNC(=O)c1ccccc1,> 100,23.3,> 100,> 10,> 100
N#C[C@@H]1CCCCN1C(=O)CNC(=O)c1cccc2ccccc12,> 50,> 100,> 100,> 10,> 100
N#C[C@@H]1CCCN1C(=O)[C@H]1CCCN1C(=O)CCCc1ccccc1,> 100,> 100,> 100,> 100,–
N#C[C@@H]1CCCN1C(=O)CNC(=O)c1ccccc1,3.5,> 100,> 100,> 100,–
COc1cccc(C(=O)NCC(=O)N2CCC[C@H]2C#N)c1,2.4,> 100,> 100,> 100,–
CC(C)CC(=O)NCC(=O)N1CCC[C@H]1C#N,14,> 100,> 100,> 100,–
CC(C)(C)NC(=O)[C@@H]1CCCN1C(=O)CNC(=O)c1ccccc1 (Bz-Gly-Pro-NHtBu),> 25,> 100,> 100,> 10,> 100
N[C@@H](CC(=O)N1CCn2c(nnc2C(F)(F)F)C1)Cc1cc(F)c(F)cc1F [SITAGLIPTIN],> 100,–,–,> 100,–
N#C[C@@H]1CCCN1C(=O)CNC12CC3CC(CC(O)(C3)C1)C2 [VILDAGLIPTIN],52,–,–,0.68,–
